Calls of active or inactive are those of the source. No cut-off for these calls is given here.
Tests used:
[1] = Antiaggregating activity in Homo sapiens (human) platelet rich plasma assessed as ristocetin-induced platelet aggregation at 0.5 uM incubated for 4 min prior to ristocetin-induction measured for 5.5 min by turbidometric analysis (reference value: 65 to 99%); format: functional
Platelet [2] = assay: Antiaggregating activity in Homo sapiens (human) platelet rich plasma assessed as inhibition of collagen-induced platelet aggregation at 0.5 uM incubated for 4 min prior to collagen-induction measured for 5.5 min by turbidometric analysis; format: functional, cell-free
[3] = Antiaggregating activity in Homo sapiens (human) platelet rich plasma assessed as ristocetin-induced platelet aggregation at 1 uM incubated for 4 min prior to ristocetin-induction measured for 5.5 min by turbidometric analysis (reference value: 65 to 99%); format: functional
Platelet [4] = assay: Antiaggregating activity in Homo sapiens (human) platelet rich plasma assessed as inhibition of ADP-induced platelet aggregation at 0.5 uM incubated for 4 min prior to ADP-induction measured for 5.5 min by turbidometric analysis; format: functional, cell-free
Platelet [5] = assay: Antiaggregating activity in Homo sapiens (human) platelet rich plasma assessed as inhibition of adrenaline-induced platelet aggregation at 0.5 uM incubated for 4 min prior to adrenaline-induction measured for 5.5 min by turbidometric analysis; format: functional, cell-free
[6] = Antiaggregating activity in Homo sapiens (human) platelet rich plasma assessed as ristocetin-induced platelet aggregation at 0.1 uM incubated for 4 min prior to ristocetin-induction measured for 5.5 min by turbidometric analysis (reference value: 65 to 99%); format: functional
[7] = Antiaggregating activity in Homo sapiens (human) platelet rich plasma assessed as arachidonic acid-induced platelet aggregation at 0.1 uM incubated for 4 min prior to arachidonic acid-induction measured for 5.5 min by turbidometric analysis (reference value: 55 to 100%); format: functional
Platelet [8] = assay: Antiaggregating activity in Homo sapiens (human) platelet rich plasma assessed as inhibition of arachidonic acid-induced platelet aggregation at 0.25 uM incubated for 4 min prior to arachidonic acid-induction measured for 5.5 min by turbidometric analysis; format: functional, cell-free
[9] = Antiaggregating activity in Homo sapiens (human) platelet rich plasma assessed as disaggregation of ristocetin-induced platelet aggregation at 0.25 uM incubated for 4 min prior to ristocetin-induction measured for 5.5 min by turbidometric analysis relative to control; format: functional
Platelet [10] = assay: Antiaggregating activity in Homo sapiens (human) platelet rich plasma assessed as inhibition of adrenaline-induced platelet aggregation at 1 uM incubated for 4 min prior to adrenaline-induction measured for 5.5 min by turbidometric analysis; format: functional, cell-free
Platelet [11] = assay: Antiaggregating activity in Homo sapiens (human) platelet rich plasma assessed as inhibition of adrenaline-induced platelet aggregation at 0.1 uM incubated for 4 min prior to adrenaline-induction measured for 5.5 min by turbidometric analysis; format: functional, cell-free
[12] = Antiaggregating activity in Homo sapiens (human) platelet rich plasma assessed as disaggregation of ADP-induced platelet aggregation at 0.25 uM incubated for 4 min prior to ADP-induction measured for 5.5 min by turbidometric analysis relative to control; format: functional
Platelet [13] = assay: Antiaggregating activity in Homo sapiens (human) platelet rich plasma assessed as inhibition of collagen-induced platelet aggregation at 0.1 uM incubated for 4 min prior to collagen-induction measured for 5.5 min by turbidometric analysis; format: functional, cell-free
Platelet [14] = assay: Antiaggregating activity in Homo sapiens (human) platelet rich plasma assessed as inhibition of adrenaline-induced platelet aggregation at 0.25 uM incubated for 4 min prior to adrenaline-induction measured for 5.5 min by turbidometric analysis; format: functional, cell-free
Platelet [15] = assay: (§1) Antiaggregating activity in Homo sapiens (human) platelet rich plasma assessed as inhibition of collagen-induced platelet aggregation at 0.25 uM incubated for 4 min prior to collagen-induction measured for 5.5 min by turbidometric analysis; format: functional
Platelet [16] = assay: Antiaggregating activity in Homo sapiens (human) platelet rich plasma assessed as inhibition of arachidonic acid-induced platelet aggregation at 1 uM incubated for 4 min prior to arachidonic acid-induction measured for 5.5 min by turbidometric analysis; format: functional, cell-free
Platelet [17] = assay: Antiaggregating activity in Homo sapiens (human) platelet rich plasma assessed as inhibition of collagen-induced platelet aggregation at 1 uM incubated for 4 min prior to collagen-induction measured for 5.5 min by turbidometric analysis; format: functional, cell-free
[18] = Antiaggregating activity in Homo sapiens (human) platelet rich plasma assessed as ADP-induced platelet aggregation at 0.1 uM incubated for 4 min prior to ADP-induction measured for 5.5 min by turbidometric analysis (reference value: 54 to 88%); format: functional
Platelet [19] = assay: (§2) Antiaggregating activity in Homo sapiens (human) platelet rich plasma assessed as inhibition of arachidonic acid-induced platelet aggregation at 0.5 uM incubated for 4 min prior to arachidonic acid-induction measured for 5.5 min by turbidometric analysis; format: functional
Platelet [20] = assay: Antiaggregating activity in Homo sapiens (human) platelet rich plasma assessed as inhibition of ADP-induced platelet aggregation at 1 uM incubated for 4 min prior to ADP-induction measured for 5.5 min by turbidometric analysis; format: functional, cell-free
[21] = Antiaggregating activity in Homo sapiens (human) platelet rich plasma assessed as disaggregation of ADP-induced platelet aggregation at 1 uM incubated for 4 min prior to ADP-induction measured for 5.5 min by turbidometric analysis relative to control; format: functional
[22] = Antiaggregating activity in Homo sapiens (human) platelet rich plasma assessed as ADP-induced platelet aggregation at 0.25 uM incubated for 4 min prior to ADP-induction measured for 5.5 min by turbidometric analysis (reference value: 54 to 88%); format: functional
Platelet [23] = assay: Antiaggregating activity in Homo sapiens (human) platelet rich plasma assessed as inhibition of arachidonic acid-induced platelet aggregation at 2 uM incubated for 4 min prior to arachidonic acid-induction measured for 5.5 min by turbidometric analysis; format: functional, cell-free
[24] = Antiaggregating activity in Homo sapiens (human) platelet rich plasma assessed as ristocetin-induced platelet aggregation at 0.25 uM incubated for 4 min prior to ristocetin-induction measured for 5.5 min by turbidometric analysis (reference value: 65 to 99%); format: functional
Platelet [25] = assay: Antiaggregating activity in Homo sapiens (human) platelet rich plasma assessed as inhibition of collagen-induced platelet aggregation at 2 uM incubated for 4 min prior to collagen-induction measured for 5.5 min by turbidometric analysis; format: functional, cell-free
Platelet [26] = assay: Antiaggregating activity in Homo sapiens (human) platelet rich plasma assessed as inhibition of ristocetin-induced platelet aggregation at 2 uM incubated for 4 min prior to ristocetin-induction measured for 5.5 min by turbidometric analysis; format: functional, cell-free
Platelet [27] = assay: Antiaggregating activity in Homo sapiens (human) platelet rich plasma assessed as inhibition of adrenaline-induced platelet aggregation at 2 uM incubated for 4 min prior to adrenaline-induction measured for 5.5 min by turbidometric analysis; format: functional, cell-free
[28] = as §1; format: functional; set-up: scale not given: the % may be the effect or the level left
[29] = Antiaggregating activity in Homo sapiens (human) platelet rich plasma assessed as adrenaline-induced platelet aggregation at 0.25 uM incubated for 4 min prior to adrenaline-induction measured for 5.5 min by turbidometric analysis (reference value: 65 to 100%); format: functional
[30] = as §2; format: functional; set-up: scale not given: the % may be the effect or the level left
Platelet [31] = assay: Antiaggregating activity in Homo sapiens (human) platelet rich plasma assessed as inhibition of ADP-induced platelet aggregation at 2 uM incubated for 4 min prior to ADP-induction measured for 5.5 min by turbidometric analysis; format: functional, cell-free
[32] = Antiaggregating activity in Homo sapiens (human) platelet rich plasma assessed as collagen-induced platelet aggregation at 0.03 uM incubated for 4 min prior to collagen-induction measured for 5.5 min by turbidometric analysis (reference value: 50 to 98%); format: functional
Platelet [33] = assay: Antiaggregating activity in Homo sapiens (human) platelet rich plasma assessed as inhibition of adrenaline-induced platelet aggregation at 0.125 uM incubated for 4 min prior to adrenaline-induction measured for 5.5 min by turbidometric analysis; format: functional, cell-free
[34] = Antiaggregating activity in Homo sapiens (human) platelet rich plasma assessed as ristocetin-induced platelet aggregation at 0.03 uM incubated for 4 min prior to ristocetin-induction measured for 5.5 min by turbidometric analysis (reference value: 65 to 99%); format: functional
Platelet [35] = assay: Antiaggregating activity in Homo sapiens (human) platelet rich plasma assessed as inhibition of arachidonic acid-induced platelet aggregation at 0.125 uM incubated for 4 min prior to arachidonic acid-induction measured for 5.5 min by turbidometric analysis; format: functional, cell-free
Platelet [36] = assay: Antiaggregating activity in Homo sapiens (human) platelet rich plasma assessed as inhibition of arachidonic acid-induced platelet aggregation at 0.06 uM incubated for 4 min prior to arachidonic acid-induction measured for 5.5 min by turbidometric analysis; format: functional, cell-free
Platelet [37] = assay: Antiaggregating activity in Homo sapiens (human) platelet rich plasma assessed as inhibition of ADP-induced platelet aggregation at 0.125 uM incubated for 4 min prior to ADP-induction measured for 5.5 min by turbidometric analysis; format: functional, cell-free
[38] = Antiaggregating activity in Homo sapiens (human) platelet rich plasma assessed as arachidonic acid-induced platelet aggregation at 0.03 uM incubated for 4 min prior to arachidonic acid-induction measured for 5.5 min by turbidometric analysis (reference value: 55 to 100%); format: functional
Platelet [39] = assay: Antiaggregating activity in Homo sapiens (human) platelet rich plasma assessed as inhibition of adrenaline-induced platelet aggregation at 0.06 uM incubated for 4 min prior to adrenaline-induction measured for 5.5 min by turbidometric analysis; format: functional, cell-free
[40] = Antiaggregating activity in Homo sapiens (human) platelet rich plasma assessed as ADP-induced platelet aggregation at 0.03 uM incubated for 4 min prior to ADP-induction measured for 5.5 min by turbidometric analysis (reference value: 54 to 88%); format: functional
[41] = Antiaggregating activity in Homo sapiens (human) platelet rich plasma assessed as ristocetin-induced platelet aggregation at 0.06 uM incubated for 4 min prior to ristocetin-induction measured for 5.5 min by turbidometric analysis (reference value: 65 to 99%); format: functional
[42] = Antiaggregating activity in Homo sapiens (human) platelet rich plasma assessed as disaggregation of ADP-induced platelet aggregation at 0.06 uM incubated for 4 min prior to ADP-induction measured for 5.5 min by turbidometric analysis relative to control; format: functional
Platelet [43] = assay: Antiaggregating activity in Homo sapiens (human) platelet rich plasma assessed as inhibition of collagen-induced platelet aggregation at 0.125 uM incubated for 4 min prior to collagen-induction measured for 5.5 min by turbidometric analysis; format: functional, cell-free
Platelet [44] = assay: Antiaggregating activity in Homo sapiens (human) platelet rich plasma assessed as inhibition of adrenaline-induced platelet aggregation at 0.03 uM incubated for 4 min prior to adrenaline-induction measured for 5.5 min by turbidometric analysis; format: functional, cell-free
[45] = Antiaggregating activity in Homo sapiens (human) platelet rich plasma assessed as ristocetin-induced platelet aggregation at 0.125 uM incubated for 4 min prior to ristocetin-induction measured for 5.5 min by turbidometric analysis (reference value: 65 to 99%); format: functional
Platelet [46] = assay: Antiaggregating activity in Homo sapiens (human) platelet rich plasma assessed as inhibition of collagen-induced platelet aggregation at 0.06 uM incubated for 4 min prior to collagen-induction measured for 5.5 min by turbidometric analysis; format: functional, cell-free

Cl.O=C(C1CCCN(Cc2ccccc2F)C1)N1CCN(c2ccccc2Cl)CC1 (stereo not given)
Activity [1]: 73%
inhibition (Platelet [2]): Active
Activity [3]: 50%
inhibition (Platelet [4]): Active
inhibition (Platelet [5]): Active
Activity [6]: 50%
Activity [7]: 59%
inhibition (Platelet [8]): Active
Activity [9]: 18%
inhibition (Platelet [10]): Active
inhibition (Platelet [11]): Active
Activity [12]: 38%
inhibition (Platelet [13]): Active
inhibition (Platelet [14]): Active
inhibition (Platelet [15]): Active
inhibition (Platelet [16]): Active
inhibition (Platelet [17]): Active
Activity [18]: 74%
inhibition (Platelet [19]): Active
inhibition (Platelet [20]): Active

O=C(c1ccc[n+](Cc2ccccc2)c1)N1CCN(C(=O)c2ccc[n+](Cc3ccccc3)c2)CC1.[Cl-].[Cl-]
Activity [21]: 25%
Activity [3]: 73%
Activity [22]: 28%
inhibition (Platelet [23]): Active
Activity [24]: 80%
inhibition (Platelet [25]): Active
inhibition (Platelet [10]): Active
inhibition (Platelet [26]): Active
inhibition (Platelet [27]): Active
Activity [28]: 79%
inhibition (Platelet [16]): Active
inhibition (Platelet [17]): Active
Activity [29]: 66%
Activity [30]: 71%
inhibition (Platelet [31]): Active

Br.O=C(C1CCCN(Cc2ccc(CN3CCCC(C(=O)N4CCN(c5ccccc5Cl)CC4)C3)cc2)C1)N1CCN(c2ccccc2Cl)CC1 (stereo not given)
Activity [32]: 76%
Activity [1]: 35%
inhibition (Platelet [2]): Active
Activity [3]: 30%
inhibition (Platelet [4]): Active
inhibition (Platelet [33]): Active
Activity [34]: 78%
inhibition (Platelet [5]): Active
inhibition (Platelet [35]): Active
inhibition (Platelet [36]): Active
inhibition (Platelet [37]): Active
inhibition (Platelet [10]): Active
Activity [38]: 58%
inhibition (Platelet [39]): Active
Activity [40]: 84%
Activity [41]: 61%
Activity [42]: 27%
inhibition (Platelet [43]): Active
inhibition (Platelet [16]): Active
inhibition (Platelet [44]): Active
inhibition (Platelet [17]): Active
Activity [45]: 31%
inhibition (Platelet [19]): Active
inhibition (Platelet [46]): Active
inhibition (Platelet [20]): Active
